Assay results: patent publication US9403805B2, “Antiviral compounds” (Hoffmann-La Roche Inc., priority 2012, dated 2016)

Test system: HCV GT1b replicon
Test: HCV GT1b replicon luciferase reporter assay (2209-23 cells)
Assay type: cell-based
Conditions: Hepatitis C virus, genotype 1a / genotype 1b; 2209-23 cells (Huh-7 with GT-1b Con1 subgenomic replicon), Renilla luciferase read 72 hours after compound addition; read-out: GT-1a - EC50 (nM) HCV, GT1b, IC50 (µM)
Text: Determination of compounds HCV GT1b inhibitory replicon activity using the replicon luciferase reporter assay
The 2209-23 cell line was developed at Roche by stable transfection of the hepatoma cell line Huh-7 with a GT-1b Con1 subgenomic bicistronic replicon as previously described. Subgenomic replicon cell line was established in cured Huh7 cells, obtained from R. Bartenschlager (J Virol. 2003 March; 77 (5):3007-19) The GT-1a H77 subgenomic replicon vector pRLuc H77 1b 75 S/I, was created by replacing the nonstructural region of the GT-1b Con1 subgenomic replicon by the one of the H77 strain, except for the first 75 amino acids of the NS3 protein that are from GT-1b Conl strain. (J. Virol. 2001 77:5352-59) The GT-1a pRLuc H77 1b 75 S/I subgenomic replicon cell line was established in cured Huh7 cells, obtained from R. Bartenschlager. (J Virol. 2003 March; 77 (5):3007-19)
All the subgenomic replicon cell lines were cultured in Dulbecco's Modified Eagle Medium (DMEM-Glutamax™-I; Invitrogen Cat #10569-010). The medium was supplemented with 10% Fetal Bovine Serum (Invitrogen Cat #10082-147), 1% penicillin/streptomycin (Mediatech Cat #30-002-CI) and 500 μg/ml of G418 (Mediatech Cat #30-234-CI). Cells were maintained at 37° C. in a humidified 5% CO2 atmosphere.
2209-23 cells were plated at a cell density of 5000 cells per well in 96 well plates (Becton Dickinson, Cat #35 3296). Cells were plated in 90 μl of Dulbecco's Modified Eagle Medium (DMEM-Glutamax™-I), (Invitrogen Cat #10569-010) medium was supplemented with 5% Fetal Bovine Serum (Invitrogen Cat #10082-147), 1% penicillin/streptomycin (Mediatech Cat #30-002-CI). The pRluc H77 1b 75 SA cells were plated in 96-well plate at 3000 cells/well in DMEM-Glutamax™-I containing 5% FBS and 1% penicillin/streptomycin in 90 μl final volume. Cells were allowed to equilibrate for 24 hours at 37° C. and 5% CO2 at which time compounds were added. Compounds (or medium as a control) were added 24 hours post-plating in 3 fold dilutions at a final DMSO concentration of 1% in 10 μl volume. Renilla luciferase reporter signal was read 72 hours after addition of compounds using the Renilla Luciferase Assay System (Promega, cat #E2820). EC50 values were defined as the compound concentration at which a 50% reduction in the levels of renilla luciferase reporter was observed as compared to control samples in the absence of compound and was determined by non-linear fitting of compound dose-response data. The EC50 was approximated if maximum percentage inhibition was less than 90% and more than 70%.

| Compound | IC50 |
| --- | --- |
| COC(=O)[C@@H]1C[C@@H](NC(=O)c2ccc3ccccc3c2O)CN1CC1CCCCC1 [Compound I-28, (2S,4R)-1-Cyclohexylmethyl-4-[(1-hydroxy-naphthalene-2-carbonyl)-amino]-pyrrolidine-2-carboxylic acid methyl ester] | 793 nM |
| O=C(N[C@H]1C[C@@H](C(=O)N2CCC2)N(CC2CCCCC2)C1)c1ccc2ccccc2c1O [Compound I-29, 1-Hydroxy-naphthalene-2-carboxylic acid [(3S,5S)-5-(azetidine-1-carbonyl)-1-cyclohexylmethyl-pyrrolidin-3-yl]-amide] | 826 nM |
